Experimental findings from article PMC7432509, “Investigating the Product Profiles and Structural Relationships of New Levansucrases with Conventional and Non-Conventional Substrates” (International Journal of Molecular Sciences, 2020) are described below.

Holding throughout (type): biochemical
Test [1] deals with T1, LS from Gluconobacter oxydans (Gluconobacter oxydans, UniProt Q5FSK0).
T1 construct: gene GOX0873; pET22b(+), E. coli BL21(DE3), HisTrap purified
T1 sequence (Q5FSK0 1-436): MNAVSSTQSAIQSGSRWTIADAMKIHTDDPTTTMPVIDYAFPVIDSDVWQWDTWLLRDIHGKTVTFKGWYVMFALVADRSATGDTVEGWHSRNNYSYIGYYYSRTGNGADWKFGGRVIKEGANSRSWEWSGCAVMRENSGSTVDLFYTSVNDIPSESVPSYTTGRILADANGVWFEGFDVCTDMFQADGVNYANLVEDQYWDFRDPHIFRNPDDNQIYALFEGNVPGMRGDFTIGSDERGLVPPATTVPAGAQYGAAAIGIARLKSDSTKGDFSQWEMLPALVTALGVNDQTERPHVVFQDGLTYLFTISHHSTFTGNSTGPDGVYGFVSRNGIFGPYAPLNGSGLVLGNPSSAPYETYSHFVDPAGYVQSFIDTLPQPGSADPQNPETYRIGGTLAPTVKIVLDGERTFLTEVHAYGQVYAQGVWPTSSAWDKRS
Nature of the test: HPAEC-PAD, bioconversion of raffinose. The settings on record: raffinose as sole fructosyl donor and acceptor (0.8 M in methods, 0.9 M in figure legend).

The target of test [2] is T2, LS from Novosphingobium aromaticivorans (Novosphingobium aromaticivorans, UniProt Q2G754).
T2 construct: gene Saro_1879; pET22b(+), E. coli BL21(DE3), HisTrap purified
T2 sequence (Q2G754 1-377): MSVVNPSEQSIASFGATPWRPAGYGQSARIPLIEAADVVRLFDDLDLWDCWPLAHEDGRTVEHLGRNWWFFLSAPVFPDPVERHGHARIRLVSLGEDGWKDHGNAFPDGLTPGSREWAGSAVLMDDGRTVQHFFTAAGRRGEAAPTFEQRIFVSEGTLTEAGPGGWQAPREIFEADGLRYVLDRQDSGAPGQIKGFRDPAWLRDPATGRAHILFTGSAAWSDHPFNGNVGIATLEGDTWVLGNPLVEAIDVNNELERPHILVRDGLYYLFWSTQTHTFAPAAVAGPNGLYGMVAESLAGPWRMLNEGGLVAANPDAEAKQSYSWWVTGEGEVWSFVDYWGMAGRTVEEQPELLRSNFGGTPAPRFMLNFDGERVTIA
As to the kind of experiment: HPAEC-PAD, bioconversion of raffinose. To be noted: raffinose as sole fructosyl donor and acceptor (0.8 M in methods, 0.9 M in figure legend).

The target of test [3] is T3, LS from Beijerinckia indica subsp. indica (Beijerinckia indica, UniProt B2IF78).
T3 construct: gene Bind_2021; pET22b(+), E. coli BL21(DE3), HisTrap purified
T3 sequence (B2IF78 29-534): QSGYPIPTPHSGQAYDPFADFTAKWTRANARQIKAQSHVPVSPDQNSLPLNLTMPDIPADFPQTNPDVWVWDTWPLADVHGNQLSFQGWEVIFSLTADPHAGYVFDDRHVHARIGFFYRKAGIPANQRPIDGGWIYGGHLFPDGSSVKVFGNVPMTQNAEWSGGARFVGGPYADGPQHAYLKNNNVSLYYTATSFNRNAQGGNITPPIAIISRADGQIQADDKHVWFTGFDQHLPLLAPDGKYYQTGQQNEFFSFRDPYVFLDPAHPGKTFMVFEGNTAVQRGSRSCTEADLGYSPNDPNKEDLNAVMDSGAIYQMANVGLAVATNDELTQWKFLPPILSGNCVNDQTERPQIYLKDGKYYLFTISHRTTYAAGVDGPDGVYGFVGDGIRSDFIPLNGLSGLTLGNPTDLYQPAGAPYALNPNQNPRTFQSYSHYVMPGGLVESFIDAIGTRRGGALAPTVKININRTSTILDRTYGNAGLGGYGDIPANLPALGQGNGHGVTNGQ
As to the kind of experiment: HPAEC-PAD, bioconversion of raffinose. To be noted: raffinose as sole fructosyl donor and acceptor (0.8 M in methods, 0.9 M in figure legend).

For test [4], the target named is T4, LS from Paraburkholderia graminis (Paraburkholderia graminis, UniProt B1G3X6).
T4 construct: gene BgramDRAFT_4066; pET22b(+), E. coli BL21(DE3), HisTrap purified
T4 sequence (B1G3X6 36-529): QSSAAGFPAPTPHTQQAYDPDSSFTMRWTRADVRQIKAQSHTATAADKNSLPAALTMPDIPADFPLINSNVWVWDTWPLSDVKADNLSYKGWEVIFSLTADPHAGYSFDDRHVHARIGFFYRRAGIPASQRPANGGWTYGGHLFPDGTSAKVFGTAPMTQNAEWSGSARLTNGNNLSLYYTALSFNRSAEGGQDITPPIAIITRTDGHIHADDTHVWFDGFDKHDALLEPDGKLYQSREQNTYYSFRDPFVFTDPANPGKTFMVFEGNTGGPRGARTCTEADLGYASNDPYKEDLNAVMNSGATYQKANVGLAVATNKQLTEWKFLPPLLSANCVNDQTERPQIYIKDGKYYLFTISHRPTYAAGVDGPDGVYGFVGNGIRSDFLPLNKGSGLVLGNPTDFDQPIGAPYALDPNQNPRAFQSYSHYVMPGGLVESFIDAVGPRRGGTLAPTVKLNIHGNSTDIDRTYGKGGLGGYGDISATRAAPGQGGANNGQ
Nature of the test: HPAEC-PAD, bioconversion of raffinose. The settings on record: raffinose as sole fructosyl donor and acceptor (0.8 M in methods, 0.9 M in figure legend).

The target in test [5] is T5, LS from Vibrio natriegens (Vibrio natriegens, UniProt A0AAN0Y6N0).
T5 construct: gene BA890_19745; pET22b(+), E. coli BL21(DE3), HisTrap purified
T5 sequence (A0AAN0Y6N0 28-523): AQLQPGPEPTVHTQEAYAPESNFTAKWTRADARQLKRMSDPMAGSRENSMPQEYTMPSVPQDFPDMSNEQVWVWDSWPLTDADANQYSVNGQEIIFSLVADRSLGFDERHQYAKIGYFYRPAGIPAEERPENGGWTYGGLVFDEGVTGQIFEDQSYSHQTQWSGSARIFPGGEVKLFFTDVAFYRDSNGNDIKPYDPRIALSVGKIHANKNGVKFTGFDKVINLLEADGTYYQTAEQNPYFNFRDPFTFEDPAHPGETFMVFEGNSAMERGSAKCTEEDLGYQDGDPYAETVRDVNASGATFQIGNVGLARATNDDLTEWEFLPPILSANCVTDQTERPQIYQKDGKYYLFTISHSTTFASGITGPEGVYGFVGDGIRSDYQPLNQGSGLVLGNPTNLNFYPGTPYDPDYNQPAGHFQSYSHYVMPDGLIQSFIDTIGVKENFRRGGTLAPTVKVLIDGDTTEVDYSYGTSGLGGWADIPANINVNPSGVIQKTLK
Nature of the test: HPAEC-PAD, bioconversion of raffinose. To be noted: raffinose as sole fructosyl donor and acceptor (0.8 M in methods, 0.9 M in figure legend).

For test [6], the target named is T4, LS from Paraburkholderia graminis. Nature of the test: HPAEC-PAD time course of sucrose conversion. The settings on record: 0.8 M sucrose, 30 °C, 5-7 U/mL; fructosyl donor and acceptor.
Test [7] addresses T1, LS from Gluconobacter oxydans. Nature of the test: HPAEC-PAD time course of sucrose conversion. To be noted: 0.8 M sucrose, 30 °C, 5-7 U/mL; fructosyl donor and acceptor.

SMILES strings stand for the structures.

For the compound `OC[C@H]1O[C@H](OC[C@H]2O[C@H](O[C@]3(CO)O[C@H](CO)[C@@H](O)[C@@H]3O)[C@H](O)[C@@H](O)[C@@H]2O)[C@H](O)[C@@H](O)[C@H]1O` [raffinose], the “HPAEC-PAD, bioconversion of raffinose” value in test [1] is “All LSs were able to produce a few different trisaccharides”; in test [2], “LS from V. natriegens, N. aromaticivorans, and B. indica subsp. indica preferred raffinose as the substrate”; in test [3], “LS from V. natriegens, N. aromaticivorans, and B. indica subsp. indica preferred raffinose as the substrate”; in test [4], “LS from P. graminis catalyzed the synthesis of multiple oligosaccharides using raffinose”; in test [5] it was “LS from V. natriegens, N. aromaticivorans, and B. indica subsp. indica preferred raffinose as the substrate”.

`OC[C@H]1O[C@@](CO)(O[C@H]2O[C@H](CO)[C@@H](O)[C@H](O)[C@H]2O)[C@@H](O)[C@@H]1O` [sucrose]: the “HPAEC-PAD time course of sucrose conversion” value in test [6] is “The LS from P. graminis used the highest amount of sucrose amongst all the enzymes tested”; in test [7], “The LSs from G. oxydans and P. graminis almost depleted the sucrose”.
